Reference: patent US11479539B2, “Small molecule modulators of the BTB domain of Keap1” (MedImmune Limited, priority 2017, dated 2022)

The molecules below were run against Keap1 (Homo sapiens (Human), UniProt Q14145) (assay: HEK293 ARE luciferase assay). Settings: HEK-293 ARE firefly luciferase transiently transfected cells; 18 h incubation; mean of 1 to 20 individual measurements.
Assay type: cell-based
Outline: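 Keap1 inhibition read as Nrf2-driven luciferase rise: compounds dosed in 10 points up to 100 μM (0.3% DMSO) on HEK-293 ARE luciferase cells, 10,000/well, 18 h at 37 °C, then SteadyGlo luminescence. Scaled between DMSO vehicle and 30 μM tBHQ; values average 1-20 runs.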

Keap1, sequence (Q14145 whole entry): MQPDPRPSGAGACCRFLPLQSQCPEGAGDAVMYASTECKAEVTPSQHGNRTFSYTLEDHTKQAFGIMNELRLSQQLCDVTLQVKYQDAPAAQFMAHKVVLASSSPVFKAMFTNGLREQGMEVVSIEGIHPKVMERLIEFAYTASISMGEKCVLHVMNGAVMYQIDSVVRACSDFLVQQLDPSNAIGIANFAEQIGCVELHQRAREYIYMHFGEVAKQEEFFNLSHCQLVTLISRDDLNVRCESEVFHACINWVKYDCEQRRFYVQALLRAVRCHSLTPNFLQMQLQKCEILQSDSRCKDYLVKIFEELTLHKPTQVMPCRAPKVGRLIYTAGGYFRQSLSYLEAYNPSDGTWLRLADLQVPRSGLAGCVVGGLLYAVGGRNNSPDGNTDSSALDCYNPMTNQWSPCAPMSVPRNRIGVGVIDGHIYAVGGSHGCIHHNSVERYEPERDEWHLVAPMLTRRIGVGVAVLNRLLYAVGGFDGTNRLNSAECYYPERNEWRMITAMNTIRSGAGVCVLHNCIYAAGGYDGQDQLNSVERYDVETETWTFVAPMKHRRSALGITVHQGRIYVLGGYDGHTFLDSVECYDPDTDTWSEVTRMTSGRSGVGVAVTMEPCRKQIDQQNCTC

| Compound | EC50 |
| --- | --- |
| COC1(c2ncc(F)cc2-c2cnn(C)c2C)C=C(C#N)C(=O)C(C)(C)C1 (single isomer, unassigned) [Compound 71, 3-[3-(1,5-dimethyl-1H-pyrazol-4-yl)-5-fluoropyridin-2-yl]-3-methoxy-5,5-dimethyl-6-oxocyclohex-1-ene-1-carbonitrile] | 0.009 µM |
| COC1(c2ncc(F)cc2-c2cnn(C3CC3)c2)C=C(C#N)C(=O)C(C)(C)C1 (single isomer, unassigned) [Compound 72, 3-[3-(1-cyclopropyl-1H-pyrazol-4-yl)-5-fluoropyridin-2-yl]-3-methoxy-5,5-dimethyl-6-oxocyclohex-1-ene-1-carbonitrile] | 0.006 µM |
| COC1(c2ncc(Cl)cc2F)C=C(C#N)C(=O)C2(CC2)C1 (single isomer, unassigned) [Compound 61, 7-(5-chloro-3-fluoropyridin-2-yl)-7-methoxy-4-oxospiro[2.5]oct-5-ene-5-carbonitrile] | 0.079 µM |
| COC1(c2ncc(F)cc2C#CC(C)C)C=C(C#N)C(=O)C(C)(C)C1 (single isomer, unassigned) [Compound 100, 3-[5-fluoro-3-(3-methylbut-1-yn-1-yl)pyridin-2-yl]-3-methoxy-5,5-dimethyl-6-oxocyclohex-1-ene-1-carbonitrile] | 0.077 µM |
| COC1(c2ncc(F)cc2-c2ccnc(C)c2)C=C(C#N)C(=O)C(C)(C)C1 (single isomer, unassigned) [Compound 76, 3-[5-fluoro-3-(2-methyl-4-pyridyl)-2-pyridyl]-3-methoxy-5,5-dimethyl-6-oxo-cyclohexene-1-carbonitrile] | 0.003 µM |
| COC1(c2scnc2C)C=C(C#N)C(=O)C(C)(C)C1 (single isomer, unassigned) [Compound 43, 3-methoxy-5,5-dimethyl-3-(4-methylthiazol-5-yl)-6-oxocyclohex-1-enecarbonitrile] | 0.129 µM |
| COC1(c2ccc(F)cn2)C=C(C#N)C(=O)C2(CCCC2)C1 (single isomer, unassigned) [Compound 67, 9-(5-fluoropyridin-2-yl)-9-methoxy-6-oxospiro[4.5]dec-7-ene-7-carbonitrile] | 0.239 µM |
| COC1(c2nc(C)cs2)C=C(C#N)C(=O)C(C)(C)C1 (centres unmarked) [Compound 142, 3-methoxy-5,5-dimethyl-3-(4-methyl-1,3-thiazol-2-yl)-6-oxocyclohex-1-ene-1-carbonitrile] | 0.06 µM |
| CO[C@]1(c2ncc(Cl)cn2)C=C(C#N)C(=O)C(C)(C)C1 [Compound 214, (3S)-3-(5-chloropyrimidin-2-yl)-3-methoxy-5,5-dimethyl-6-oxocyclohex-1-ene-1-carbonitrile] | 0.02 µM |
| COC1(c2ncc(F)cc2OC(F)F)C=C(C#N)C(=O)C2(CC2)C1 (centres unmarked) [Compound 160, 7-[3-(difluoromethoxy)-5-fluoropyridin-2-yl]-7-methoxy-4-oxospiro[2.5]oct-5-ene-5-carbonitrile] | 0.02 µM |
| COC1(c2ncc(F)cc2C(F)F)C=C(C#N)C(=O)C2(CC2)C1 (centres unmarked) [Compound 196, 7-[3-(difluoromethyl)-5-fluoropyridin-2-yl]-7-methoxy-4-oxospiro[2.5]oct-5-ene-5-carbonitrile] | 0.046 µM |
| COC1(c2ncc(F)cc2-c2cncc(C(F)(F)F)c2)C=C(C#N)C(=O)C(C)(C)C1 (single isomer, unassigned) [Compound 215, 3-[5-fluoro-5′-(trifluoromethyl)[3,3′-bipyridin]-2-yl]-3-methoxy-5,5-dimethyl-6-oxocyclohex-1-ene-1-carbonitrile] | 0.015 µM |
| COC1(c2ncc(F)cc2C(F)(F)F)C=C(C#N)C(=O)C(C)(C)C1 (centres unmarked) [Compound 151, 3-[5-fluoro-3-(trifluoromethyl)pyridin-2-yl]-3-methoxy-5,5-dimethyl-6-oxocyclohex-1-ene-1-carbonitrile] | 0.034 µM |
| COC1(c2ncc(F)cc2-c2c(C)nn(C)c2C)C=C(C#N)C(=O)C(C)(C)C1 (single isomer, unassigned) [Compound 92, 3-[5-fluoro-3-(1,3,5-trimethylpyrazol-4-yl)-2-pyridyl]-3-methoxy-5,5-dimethyl-6-oxo-cyclohexene-1-carbonitrile] | 0.067 µM |
| COC1(c2ncccc2C(F)(F)F)C=C(C#N)C(=O)C2(CC2)C1 (centres unmarked) [Compound 133, 7-methoxy-4-oxo-7-[3-(trifluoromethyl)pyridin-2-yl]spiro[2.5]oct-5-ene-5-carbonitrile] | 0.076 µM |
| COC1(c2ncc(F)cc2-c2cncc(Cl)c2)C=C(C#N)C(=O)C(C)(C)C1 (single isomer, unassigned) [Compound 88, 3-[3-(5-chloro-3-pyridyl)-5-fluoro-2-pyridyl]-3-methoxy-5,5-dimethyl-6-oxo-cyclohexene-1-carbonitrile] | 0.009 µM |
| COC1(c2ccccn2)C=C(C#N)C(=O)C2(CC2)C1 (single isomer, unassigned) [Compound 56, 7-methoxy-4-oxo-7-(pyridin-2-yl)spiro[2.5]oct-5-ene-5-carbonitrile] | 0.179 µM |
| COC1(c2ccc(Cl)cn2)C=C(C#N)C(=O)C(C)(C)C1 (single isomer, unassigned) [Compound 32, 3-(5-chloropyridin-2-yl)-3-methoxy-5,5-dimethyl-6-oxocyclohex-1-enecarbonitrile] | 0.055 µM |

| Compound | EC50 |
| --- | --- |
| COC1(c2ncccc2C(F)(F)F)C=C(C#N)C(=O)C2(CCCC2)C1 (single isomer, unassigned) [Compound 66, 9-methoxy-6-oxo-9-[3-(trifluoromethyl)pyridin-2-yl]spiro[4.5]dec-7-ene-7-carbonitrile] | 0.126 µM |
| COC1(c2cccnc2Cl)C=C(C#N)C(=O)C(C)(C)C1 (centres unmarked) [Compound 18, 3-(2-chloro-3-pyridyl)-3-methoxy-5,5-dimethyl-6-oxo-cyclohexene-1-carbonitrile] | 0.265 µM |
| COC1(c2cncc(C)n2)C=C(C#N)C(=O)C2(CC2)C1 (centres unmarked) [Compound 131, 7-methoxy-7-(6-methylpyrazin-2-yl)-4-oxospiro[2.5]oct-5-ene-5-carbonitrile] | 0.464 µM |
| COC1(c2ncc(F)cc2-c2cncc(F)c2)C=C(C#N)C(=O)C(C)(C)C1 (centres unmarked) [Compound 182, 3-(5,5′-difluoro[3,3′-bipyridin]-2-yl)-3-methoxy-5,5-dimethyl-6-oxocyclohex-1-ene-1-carbonitrile] | 0.105 µM |
| COc1cc(-c2cc(F)cnc2C2(OC)C=C(C#N)C(=O)C(C)(C)C2)c(Cl)cn1 (single isomer, unassigned) [Compound 218, 3-(5′-chloro-5-fluoro-2′-methoxy[3,4′-bipyridin]-2-yl)-3-methoxy-5,5-dimethyl-6-oxocyclohex-1-ene-1-carbonitrile] | 0.023 µM |
| COC1(c2ncc(F)cc2-c2sc(C)nc2C)C=C(C#N)C(=O)C(C)(C)C1 (centres unmarked) [Compound 191, 3-[3-(2,4-dimethyl-1,3-thiazol-5-yl)-5-fluoropyridin-2-yl]-3-methoxy-5,5-dimethyl-6-oxocyclohex-1-ene-1-carbonitrile] | 0.012 µM |
| COC1(c2ncc(F)cc2-c2cncc(F)c2)C=C(C#N)C(=O)C(C)(C)C1 (single isomer, unassigned) [Compound 84, 3-[5-fluoro-3-(5-fluoro-3-pyridyl)-2-pyridyl]-3-methoxy-5,5-dimethyl-6-oxo-cyclohexene-1-carbonitrile] | 0.006 µM |
| COC1(c2nc(C)c(Br)s2)C=C(C#N)C(=O)C(C)(C)C1 (single isomer, unassigned) [Compound 98, 3-(5-bromo-4-methyl-1,3-thiazol-2-yl)-3-methoxy-5,5-dimethyl-6-oxocyclohex-1-ene-1-carbonitrile] | 0.079 µM |
| COC1(c2cccc(-c3c(C)noc3C)n2)C=C(C#N)C(=O)C2(CC2)C1 (centres unmarked) [Compound 130, 7-[6-(3,5-dimethyl-1,2-oxazol-4-yl)pyridin-2-yl]-7-methoxy-4-oxospiro[2.5]oct-5-ene-5-carbonitrile] | 0.153 µM |
| COC1(c2ccc(-c3cnn(C)c3)cn2)C=C(C#N)C(=O)C(C)(C)C1 (centres unmarked) [Compound 115, 3-methoxy-5,5-dimethyl-3-[5-(1-methyl-1H-pyrazol-4-yl)pyridin-2-yl]-6-oxocyclohex-1-ene-1-carbonitrile] | 0.106 µM |
| COC1(c2cccc(-c3ccnn3C)n2)C=C(C#N)C(=O)C2(CC2)C1 (centres unmarked) [Compound 129, 7-methoxy-7-[6-(1-methyl-1H-pyrazol-5-yl)pyridin-2-yl]-4-oxospiro[2.5]oct-5-ene-5-carbonitrile] | 0.136 µM |
| COC1(c2ncc(F)cc2Cl)C=C(C#N)C(=O)C(C)(C)C1 (single isomer, unassigned) [Compound 224, 3-(3-chloro-5-fluoropyridin-2-yl)-3-methoxy-5,5-dimethyl-6-oxocyclohex-1-ene-1-carbonitrile] | 0.014 µM |
| COC1(c2cccc(-c3cnn(C)c3)n2)C=C(C#N)C(=O)C(C)(C)C1 (single isomer, unassigned) [Compound 107, 3-methoxy-5,5-dimethyl-3-(6-(1-methyl-1H-pyrazol-4-yl)pyridin-2-yl)-6-oxocyclohex-1-ene-1-carbonitrile] | 0.037 µM |
| CO[C@]1(c2ncccc2C(F)F)C=C(C#N)C(=O)C2(CC2)C1 [Compound 55, (S)-7-[3-(difluoromethyl)pyridin-2-yl]-7-methoxy-4-oxospiro[2.5]oct-5-ene-5-carbonitrile] | 0.014 µM |
| COC1(c2ncccc2C(F)F)C=C(C#N)C(=O)C2(CC2)C1 (centres unmarked) [Compound 132, 7-[3-(difluoromethyl)pyridin-2-yl]-7-methoxy-4-oxospiro[2.5]oct-5-ene-5-carbonitrile] | 0.15 µM |
| COC1(c2cccc(Br)n2)C=C(C#N)C(=O)C(C)(C)C1 (centres unmarked) [Compound 2, 3-(6-bromo-2-pyridyl)-3-methoxy-5,5-dimethyl-6-oxo-cyclohexene-1-carbonitrile] | 0.228 µM |
| COC1(c2ccc(F)cn2)C=C(C#N)C(=O)C2(CCCC2)C1 (centres unmarked) [Compound 240, 9-(5-fluropyridin-2-yl)-9-methoxy-6-oxospiro[4.5]dec-7-ene-7-carbonitrile] | 0.838 µM |
